Source: the supplement of paper PMC10307832

Experiments:
Assay in all cases: relative viability (nuclei count vs DMSO), 5 days (fraction); higher = more cells survive
PAC-1 + Lapatinib = compound: C=CCc1cccc(/C=N/NC(=O)CN2CCN(Cc3ccccc3)CC2)c1O [PAC-1] + CS(=O)(=O)CCNCc1ccc(-c2ccc3ncnc(Nc4ccc(OCc5cccc(F)c5)c(Cl)c4)c3c2)o1 [Lapatinib] (partner 2 µM)
Method in brief: (§1)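 Lung cancer cell lines were seeded in 1536-well plates and dosed by pin tool the next day, with either a single drug or a fixed anchor-drug dose combined with five library-drug doses (not always all listed) spaced in √10 steps. Five days later, one step fixed the cells and stained their nuclei (final 0.05% Triton X-100, 1% formaldehyde, 1 ug/ml Hoechst), and nuclei were counted on 4× images. Relative viability is the nuclei count in treated wells divided by the count in vehicle wells, and each value is the median of duplicate plates.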

BMX-IN-1 + Luminespib = compound: C=CC(=O)Nc1cc(-n2c(=O)ccc3cnc4ccc(-c5ccc(NS(C)(=O)=O)cc5)cc4c32)ccc1C [BMX-IN-1] + CCNC(=O)c1noc(-c2cc(C(C)C)c(O)cc2O)c1-c1ccc(CN2CCOCC2)cc1 [Luminespib] (partner 0.01 µM)
Method in brief: as §1

Ibrutinib + Phenformin = compound: C=CC(=O)N1CCC[C@@H](n2nc(-c3ccc(Oc4ccccc4)cc3)c3c(N)ncnc32)C1 [Ibrutinib] + N=C(N)NC(=N)NCCc1ccccc1 [Phenformin] (partner 250 µM)
Method in brief: as §1

BMX-IN-1 + Crizotinib = compound: C=CC(=O)Nc1cc(-n2c(=O)ccc3cnc4ccc(-c5ccc(NS(C)(=O)=O)cc5)cc4c32)ccc1C [BMX-IN-1] + C[C@@H](Oc1cc(-c2cnn(C3CCNCC3)c2)cnc1N)c1c(Cl)ccc(F)c1Cl [Crizotinib] (partner 1 µM)
Method in brief: as §1

Cell Line	relative viability (PAC-1 + Lapatinib; first compound 0.02 µM)	relative viability (PAC-1 + Lapatinib; first compound 0.06325 µM)	relative viability (PAC-1 + Lapatinib; first compound 0.2 µM)	relative viability (PAC-1 + Lapatinib; first compound 2 µM)	relative viability (BMX-IN-1 + Luminespib; first compound 0.02 µM)	relative viability (BMX-IN-1 + Luminespib; first compound 0.2 µM)	relative viability (BMX-IN-1 + Luminespib; first compound 0.6325 µM)	relative viability (BMX-IN-1 + Luminespib; first compound 2 µM)	relative viability (Ibrutinib + Phenformin; first compound 0.005 µM)	relative viability (Ibrutinib + Phenformin; first compound 0.01581 µM)	relative viability (Ibrutinib + Phenformin; first compound 0.05 µM)	relative viability (Ibrutinib + Phenformin; first compound 0.1581 µM)	relative viability (Ibrutinib + Phenformin; first compound 0.5 µM)	relative viability (BMX-IN-1 + Crizotinib; first compound 0.02 µM)	relative viability (BMX-IN-1 + Crizotinib; first compound 0.2 µM)	relative viability (BMX-IN-1 + Crizotinib; first compound 0.6325 µM)	relative viability (BMX-IN-1 + Crizotinib; first compound 2 µM)
HOP-62	0.876	0.987	1.03	1.22	1.08	1.06	0.891	0.926	0.759	0.621	0.696	0.724	0.804	0.76	1.04	0.98	0.959
IA-LM	0.937	0.922	0.715	1.08	–	–	–	–	–	–	–	–	–	0.875	0.865	0.99	0.772
LC-2-ad	0.983	0.957	0.984	0.865	1.16	1.1	0.884	0.974	0.552	0.579	0.56	0.478	0.531	0.374	0.518	0.484	0.494
LCLC-97TM1	–	0.796	0.796	0.954	0.969	0.856	0.817	0.823	0.452	0.457	0.449	0.504	0.411	0.343	0.429	0.363	0.387
LCLC-103H	–	–	–	–	1.1	0.933	0.956	0.882	0.334	0.282	0.3	0.369	0.275	1.19	1.05	1.07	1.07
LK-2	0.77	1.04	0.884	0.932	0.197	0.219	0.176	0.207	–	0.529	0.396	0.357	0.282	0.232	0.207	0.252	0.191
LOU-NH91	0.723	0.82	0.749	0.782	0.3	–	0.363	0.315	0.59	0.642	0.557	0.711	0.45	–	0.764	0.752	0.731
LU99A	1.11	1.05	0.918	0.977	0.216	0.181	0.227	0.258	0.889	0.8	0.837	1.05	0.846	0.639	0.567	0.547	0.579
LXF-289	0.901	0.903	0.897	0.927	0.816	0.809	0.825	0.671	0.537	0.472	0.515	0.465	0.497	0.876	0.907	0.842	0.815
NCI-H23	1.13	1.17	0.868	1.34	0.209	0.203	0.22	0.208	0.674	0.777	0.789	0.861	0.797	0.501	0.538	0.419	0.5
NCI-H322M	0.526	0.581	0.668	0.576	0.847	0.807	0.756	0.883	0.715	0.675	0.675	0.676	0.569	1.02	1.05	0.982	0.887
NCI-H358	0.473	0.525	0.477	0.388	0.444	0.308	0.405	0.327	0.23	–	0.178	0.202	0.174	0.498	0.611	0.538	0.512
NCI-H441	–	–	–	–	0.384	0.428	0.56	0.279	1.01	0.82	0.912	0.988	1.01	0.861	0.936	0.884	0.787
NCI-H460	1.01	1.01	0.916	0.942	0.0361	0.0362	0.0299	0.0331	0.636	0.46	0.463	0.572	0.592	1.57	1.76	0.906	1.03
NCI-H520	0.733	0.976	0.637	0.779	0.243	0.231	0.243	0.218	0.431	0.606	0.583	0.634	0.356	1.37	1.08	0.79	0.795
NCI-H522	–	–	–	–	1.24	1.26	1.1	1.19	0.627	0.545	0.688	0.582	0.622	–	–	–	–
NCI-H1299	0.981	0.967	0.975	0.949	–	–	–	–	–	–	–	–	–	0.798	1.03	0.97	1.01
NCI-H1395	1.12	1	0.881	1.01	0.745	0.546	0.71	0.887	0.281	0.404	0.468	0.442	0.405	–	–	–	–
NCI-H1623	–	–	–	–	0.431	0.52	0.804	0.484	0.571	0.532	0.509	0.347	0.27	–	–	–	–
NCI-H1703	0.901	1.31	0.906	0.952	–	–	–	–	–	–	–	–	–	0.821	0.952	0.631	0.56
NCI-H1793	0.48	0.753	0.62	0.652	0.172	0.167	0.167	0.204	–	0.313	0.281	0.318	0.282	–	–	–	–
NCI-H2342	–	–	–	–	0.774	0.765	0.707	0.703	0.472	0.56	0.57	0.455	0.452	–	–	–	–
SW 900	–	–	–	–	0.172	0.182	0.165	0.179	–	–	0.588	0.669	0.618	–	–	–	–
